Format in all cases: cell-based
The test system of assay [1] is Serratia marcescens. The experiment in a line: MIC against Gram-negative bacteria: Serratia marcescens. Put shortly: (§1)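 Inocula prepared by growing LB cultures at 37° C to 0.5 McFarland, centrifuging at 4000×g, and resuspending in fresh medium. Final density 5×10^5 CFU/mL per well with two-fold dilutions of purified EGF domain protein; shaking incubation at 37° C.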

Assay [2] relates to E. coli BL21. The experiment in a line: MIC against Gram-negative bacteria: E. coli BL21. Put shortly: as §1
The test system of assay [3] is Proteus vulgaris. The experiment in a line: MIC against Gram-negative bacteria: Proteus vulgaris. Put shortly: as §1
The test system of assay [4] is Proteus mirabilis. The experiment in a line: MIC against Gram-negative bacteria: Proteus mirabilis. Put shortly:
as §1

For assay [5], the system named is Enterobacter cloacae. The experiment in a line: MIC against Gram-negative bacteria: Enterobacter cloacae. In a few lines: as §1
Assay [6] has as its system E. coli DH5α. The experiment in a line: Antibacterial activity: MIC and growth curve against E. coli DH5α in 96-well plate. Particulars: minimal inhibitory concentration against E. coli DH5α; 96-well plate, 5×10^5 CFU/mL, 37° C., judged after 8 h. Put shortly: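 Log-phase DH5α (OD600 about 0.5, 37° C, 185 rpm in LB) was pelleted, resuspended in fresh LB and seeded at 5×10^5 CFU/mL with recombinant protein at 50, 25 and 12.5 μg/mL (two-fold series), in triplicate. Plates were shaken at 175 rpm, 37° C, and OD600 was read every 30 min. MIC was the lowest concentration with no growth.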

Assay [7] concerns Moraxella catarrhalis. The experiment in a line: MIC against Gram-negative bacteria: Moraxella catarrhalis. Put shortly:
as §1

Assay [8] has as its system Citrobacter diversus. The experiment in a line: MIC against Gram-negative bacteria: Citrobacter diversus. In a few lines:
as §1

Assay [9] relates to Klebsiella pneumonia. The experiment in a line: MIC against Gram-negative bacteria: Klebsiella pneumonia. In a few lines:
as §1

Assay [10] has as its system Aeromonas hydrophila. The experiment in a line: MIC against Gram-negative bacteria: Aeromonas hydrophila. In a few lines: as §1
For assay [11], the system named is Pseudomonas aeruginosa. The experiment in a line: MIC against Gram-negative bacteria: Pseudomonas aeruginosa. Put shortly:
as §1

The mark [12] stands for this setting: 96-well plate, 5×10^5 CFU/mL, 37° C., 10 h.
Setting [13] is: 10 h cultivation at 37° C., 5×10^5 CFU/mL, two-fold serial dilution.

The values that follow come from patent US9833497B2, “Human originated EGF domain proteins and use of the same” (CHENGDU SOURCEBIO LIMITED-LIABILITY COMPANY, priority 2013, dated 2017).

On to “PRT1354 (RDRQCPRDCSNRGLCVDGQCVCEDGFTGPDCA; listed as Homo sapiens)”, for which the “MIC against S. marcescens” value in [1] (Serratia marcescens, 5×10^5 CFU/mL, 10 h cultivation at 37° C.) was 25 µg/mL. In addition, in [2] (E. coli BL21, 5×10^5 CFU/mL, 10 h cultivation at 37° C.), the “MIC against E. coli BL21” value worked out at 12.5 µg/mL. The “MIC against P. vulgaris” value in [3] (Proteus vulgaris, 5×10^5 CFU/mL, 10 h cultivation at 37° C.) came to 12.5 µg/mL. Moreover, in assay [4] (Proteus mirabilis, 5×10^5 CFU/mL, 10 h cultivation at 37° C.), the “MIC against P. mirabilis” value was 25 µg/mL. The “MIC against E. cloacae” value in assay [5] (Enterobacter cloacae, 5×10^5 CFU/mL, 10 h cultivation at 37° C.) came to 25 µg/mL. The substance also came in with a minimal inhibitory concentration (MIC) in assay [6] of 25 µg/mL. For the same substance, the “MIC against M. catarrhalis” value in assay [7] (Moraxella catarrhalis, 5×10^5 CFU/mL, 10 h cultivation at 37° C.) came out at 50 µg/mL. In assay [8] (Citrobacter diversus, 5×10^5 CFU/mL, 10 h cultivation at 37° C.), the “MIC against C. diversus” value is 25 µg/mL. In addition, the “MIC against K. pneumonia” value in assay [9] (Klebsiella pneumonia, 5×10^5 CFU/mL, 10 h cultivation at 37° C.) came to 50 µg/mL. Besides, the “MIC against A. hydrophila” value in assay [10] (Aeromonas hydrophila, 5×10^5 CFU/mL, 10 h cultivation at 37° C.) amounted to 12.5 µg/mL. In assay [11] (Pseudomonas aeruginosa, 5×10^5 CFU/mL, 10 h cultivation at 37° C.), the “MIC against P. aeruginosa” value was determined as 25 µg/mL.

Regarding “PRT1016 (RAGPCPPRGCSNGGTCQLMPEKDSTFHLCLCPPGFIGPDCE; listed as Homo sapiens)”, the MIC was determined as 12.5 µg/mL in assay [1] (S. marcescens, 10 h cultivation at 37° C.); 25 µg/mL in assay [2] (E. coli BL21, 10 h cultivation at 37° C.); 25 µg/mL in assay [3] (P. vulgaris, 10 h cultivation at 37° C.); 50 µg/mL in assay [4] (P. mirabilis, 10 h cultivation at 37° C.); 12.5 µg/mL in assay [5] (E. cloacae, 10 h cultivation at 37° C.); 12.5 µg/mL in assay [6]. In addition, the minimal inhibitory concentration (MIC) in assay [7] (M. catarrhalis, 10 h cultivation at 37° C.) worked out at 100 µg/mL; in [8] (C. diversus, 10 h cultivation at 37° C.) it was 50 µg/mL; in assay [9] (K. pneumonia, 10 h cultivation at 37° C.), 25 µg/mL; in assay [10] (A. hydrophila, 10 h cultivation at 37° C.) it was 25 µg/mL; in assay [11] (P. aeruginosa, 10 h cultivation at 37° C.), 50 µg/mL.

Regarding “PRT601 (CDCDIGGAYSNVCSPKNGQCECRPHVTGRSCSEPAPGYFFAPLNFYL; listed as Homo sapiens)”, the “MIC S. marcescens” value in assay [1] (setting [12]) came to 12.5 µg/mL. Besides, the “MIC E. coli BL21” value in assay [2] (setting [12]) was found to be 25 µg/mL. In [3] (setting [12]), the “MIC P. vulgaris” value worked out at 50 µg/mL. The “MIC P. mirabilis” value in assay [4] (setting [12]) was found to be 100 µg/mL. Besides, the “MIC E. cloacae” value in assay [5] (setting [12]) came out at 50 µg/mL. Also, in assay [6], the MIC came out at 50 µg/mL. The “MIC M. catarrhalis” value in assay [7] (setting [12]) was found to be 50 µg/mL. In [8] (setting [12]), the “MIC C. diversus” value came to 12.5 µg/mL. Besides, in [9] (setting [12]), the “MIC K. pneumonia” value came to 25 µg/mL. Also, the “MIC A. hydrophila” value in assay [10] (setting [12]) came out at 25 µg/mL. Also, the “MIC P. aeruginosa” value in assay [11] (setting [12]) was 12.5 µg/mL.

With “PRT1176 (NIDDCSPNNCSHGGTCQDLVNGFKCVCPPQWTGKTCQ; listed as Homo sapiens)”, the “MIC S. marcescens” value in [1] (setting [13]) stood at 12.5 µg/mL. In [2] (setting [13]), the “MIC E. coli BL21” value amounted to 50 µg/mL. Further, the “MIC P. vulgaris” value in assay [3] (setting [13]) stood at 25 µg/mL. Moreover, the “MIC P. mirabilis” value in [4] (setting [13]) amounted to 50 µg/mL. Also, the “MIC E. cloacae” value in [5] (setting [13]) worked out at 12.5 µg/mL. Also, the minimum inhibitory concentration (MIC) in [6] was 12.5 µg/mL. In addition, the “MIC M. catarrhalis” value in [7] (setting [13]) is 12.5 µg/mL. Besides, in assay [8] (setting [13]), the “MIC C. diversus” value turned out to be 50 µg/mL. Also, in assay [9] (setting [13]), the “MIC K. pneumonia” value was determined as 50 µg/mL. In assay [10] (setting [13]), the “MIC A. hydrophila” value turned out to be 25 µg/mL. The “MIC P. aeruginosa” value in assay [11] (setting [13]) stood at 12.5 µg/mL.

Turning to “PRT745 (RQHPCAQDNGGCSHICLVKGDGTTRCSCPMHLVLLQDELSCG; listed as Homo sapiens)”, in assay [1] (S. marcescens, 10 h cultivation at 37° C., 5×10^5 CFU/mL), the “MIC (μg/mL) S. marcescens” value is 25 µg/mL. In addition, the “MIC (μg/mL) E. coli BL21” value in assay [2] (E. coli BL21, 10 h cultivation at 37° C., 5×10^5 CFU/mL) amounted to 25 µg/mL. In addition, the “MIC (μg/mL) P. vulgaris” value in assay [3] (P. vulgaris, 10 h cultivation at 37° C., 5×10^5 CFU/mL) worked out at 50 µg/mL. Besides, in [4] (P. mirabilis, 10 h cultivation at 37° C., 5×10^5 CFU/mL), the “MIC (μg/mL) P. mirabilis” value turned out to be 25 µg/mL. Further, the “MIC (μg/mL) E. cloacae” value in assay [5] (E. cloacae, 10 h cultivation at 37° C., 5×10^5 CFU/mL) worked out at 50 µg/mL. In assay [6], this substance showed an MIC of 50 µg/mL. Moreover, the “MIC (μg/mL) M. catarrhalis” value in assay [7] (M. catarrhalis, 10 h cultivation at 37° C., 5×10^5 CFU/mL) was found to be 12.5 µg/mL. Further, in [8] (C. diversus, 10 h cultivation at 37° C., 5×10^5 CFU/mL), the “MIC (μg/mL) C. diversus” value came to 50 µg/mL. Further, the “MIC (μg/mL) K. pneumonia” value in [9] (K. pneumonia, 10 h cultivation at 37° C., 5×10^5 CFU/mL) is 12.5 µg/mL. In assay [10] (A. hydrophila, 10 h cultivation at 37° C., 5×10^5 CFU/mL), the “MIC (μg/mL) A. hydrophila” value worked out at 12.5 µg/mL. For the same substance, the “MIC (μg/mL) P. aeruginosa” value in assay [11] (P. aeruginosa, 10 h cultivation at 37° C., 5×10^5 CFU/mL) stood at 50 µg/mL.
